Measured values published in PMC8486872, “A rational blueprint for the design of chemically-controlled protein switches” (Nature Communications, 2021).
“And” between values parts separate entries of the source, which are not always exact repeats. Equal values may be shown once.

Tests used:
Type in all cases: cell-based
[1] = system: SEAP expression in HEK293T cells; assay: Background signal of SEAP reporter and single-construct controls
Experimental: Supplementary Figure 7: Dose-dependence and reversibility characterization of CDHs in CDH- […]
(§1) transfected with SEAP reporter S132 and treated with 1 µM Drugs 12 hours post transfection.
(§2) Quantification of SEAP was performed 24 hours after drug treatment. b) Drug specificity of CDH-TFs. […]
Background signal of SEAP reporter in the absence of the CDH-GEMS system. HEK293T cells were transfected with pLS566 SEAP reporter plasmids and treated with drugs. Quantification of SEAP was performed 24 hours post drug treatment. f) SEAP activity upon transfecting single or paired […]
Quantification of SEAP activity of three CDHs with DMSO (dark color), specific (light color) and unspecific drug treatment (gray). […]
(culture medium) in panels of b, c, f and g were collected every 12 hours. Values were normalized to zero based on the SEAP expression at time 0. a, b, e, f, g) The bar charts show the mean ± s.d. of n = 3 biologically independent samples overlaid with a scatter dot plot of the original data points.

[2] = system: Gal4/UAS SEAP expression in HEK293T cells; assay: Drug specificity of CDH-TFs; conditions: Suppl Fig 7b
Experimental: Supplementary Figure 7: Dose-dependence and reversibility characterization of CDHs in CDH-
a) Background signal of SEAP reporter in the absence of the CDH-TF system. HEK239T cells were
as §1, §2

[3] = system: SEAP and Luciferase expression in HEK293T cells; assay: MIMO designer cells (AIR-1/2-GEMS + CDH-3-TF); conditions: for Luciferase: Fig5c, turn OFF via CDH-3-TF; for AIR-1-GEMS controlled SEAP expression: Fig S13c; for AIR-2-GEMS controlled SEAP expression: Fig S13e
Excerpt: We first engineered MIMO cells to respond to two drugs with distinct outputs (Fig. 5a) by co-transfecting the CDH-3-TF with either AIR-1-GEMS (Fig. 5b) or AIR-2-GEMS (Fig. 5c).
Fig. 5 Orthogonal chemical switches enable implementation of multi-input multi-output control modes in mammalian cells. a Scheme of multi-inputs multi-outputs (MIMO) designer cells where two drugs control two different outputs. b, c Cells were co-transfected with AIR-1/2-GEMS and CDH-3-TF regulate SEAP and Luciferase expression, respectively. […] AIR-1/2-GEMS coupled with SEAP expression circuits were co-transfected with CDH-1/2-TF circuits which control the Luciferase production. Respective drug concentrations ranged from 0.001 nM to 1 µM. All values presented are mean ± s.d. of three replicates and curves were fitted by four-parameters nonlinear regression. b, c, e, f, h, i Source data are available in the source data file.
Supplementary Figure 13: Orthogonal chemical switches enable implementation of multi-input multi-output control modes in mammalian cells. a) Dual drug toxicity tests in 293T cells. […]
concentrations of 1 nM, 10 nM, 100 nM and 1000 nM each drug in cell culture medium. CCK8 assay was performed 24 hours after drug treatment. Each bar represents the mean of three biological replicates ± s.d, overlaid with a scatter dot plot of the original data points. b-c) Cells were co-transfected with AIR-1-GEMS and CDH-3-TF regulate SEAP and Luciferase expression, respectively. Drug concentrations ranged from 0.001 nM to 1 µM and different combinations were added depending on the protein components, Drug-1 only (b) and Drug-3 only (c). d-e) Cells were co-transfected with AIR-2-GEMS and CDH-3-TF regulate SEAP and Luciferase expression, respectively. Drug concentrations ranged from 0.001 nM to 1 µM and different combinations were added depending on the protein […]
1-TF and CDH-3-TF circuits. Drug-1 concentrations ranged from 0.001 nM to 1 µM (left) and 1 µM Drug-1 with serial diluted Drug-3 from 0.001 nM to 1 µM (right). g) Quantification of SEAP activity controlled by CDH-1-GEMS and CDH-3-GEMS circuits. Drug-1 concentrations ranged from 0.001 nM to 1 µM (left) and Drug-3 dilution along with 1 µM Drug-1 (right). h-i) Quantification of SEAP and Luciferase activities under Drug-1. AIR-1-GEMS coupled with SEAP expression circuits (i) and CDH-1-TF circuits which control the Luciferase production (j). j-k) Quantification of SEAP and Luciferase activities under Drug-2. AIR-2-GEMS coupled with SEAP expression circuits (k) and CDH-2-TF circuits which control the Luciferase production (l). b-k) Each data point represents the mean of n = 3 biological replicates, and the dose-dependent curve were fitted using four-parameter nonlinear regression.

[4] = Fig5c Luciferase via CDH-3-TF, four-parameter fit

COc1cc2c(cc1OC(C)C)[C@H](c1ccc(Cl)cc1)N(c1ccc(N(C)C[C@H]3CC[C@H](N4CCN(C)C(=O)C4)CC3)cc1)C(=O)C2 [Drug-3, NVP-CGM097]
Reporter background signal ([1]; Suppl Fig 7a, TF reporter (S132) only): 2.305 and 2.301 and 2.45
Reporter background signal ([1]; Suppl Fig 7e, GEMS reporter (pLS566) only): 5.089 and 3.395 and 2.755
Reporter signal, drug specificity ([2]; CDH1): 58.9096 and 56.9625 and 57.522
Reporter signal, drug specificity ([2]; CDH2): 99.5028 and 95.5176 and 91.4654
Reporter signal, drug specificity ([2]; CDH3): 52.7796 and 52.4144 and 49.1641
Bottom (best-fit value) [3, 4]: 2526
HillSlope (best-fit value) [3, 4]: -0.2874
Span (best-fit value) [3, 4]: 8582
Top (best-fit value) [3, 4]: 11108
logIC50 (best-fit value) ([3]; Fig5c Luciferase via CDH-3-TF, four-parameter fit, drug in nM): 0.378
Luciferase ([3]; 0.001 nM): 11408 and 10803 and 9477
Luciferase ([3]; 0.01 nM): 8964 and 10094 and 8469
Luciferase ([3]; 0.05 nM): 9839 and 9595 and 9040
Luciferase ([3]; 0.1 nM): 9399 and 10012 and 6733
Luciferase ([3]; 0.5 nM): 8698 and 9248 and 7194
Luciferase ([3]; 1 nM): 7508 and 6014 and 5224
Luciferase ([3]; 5 nM): 7040 and 7013 and 4899
Luciferase ([3]; 50 nM): 6881 and 6483 and 4547
Luciferase ([3]; 100 nM): 6853 and 5994 and 4849
Luciferase ([3]; 500 nM): 3847 and 3669 and 3338
Luciferase ([3]; 1000 nM): 2560 and 2436 and 2236
CDH-3-TF controlled Luciferase expression ([3]; Fig S13c (with AIR-1-GEMS), Drug-3 0.01 nM): 74322 RLU and 90639 RLU and 90152 RLU
CDH-3-TF controlled Luciferase expression ([3]; Fig S13c (with AIR-1-GEMS), Drug-3 0.1 nM): 79497 RLU and 97593 RLU and 89748 RLU
CDH-3-TF controlled Luciferase expression ([3]; Fig S13c (with AIR-1-GEMS), Drug-3 1 nM): 92895 RLU and 90324 RLU and 97096 RLU
CDH-3-TF controlled Luciferase expression ([3]; Fig S13c (with AIR-1-GEMS), Drug-3 3.14 nM): 89025 RLU and 81214 RLU and 83886 RLU
CDH-3-TF controlled Luciferase expression ([3]; Fig S13c (with AIR-1-GEMS), Drug-3 10 nM): 71915 RLU and 80976 RLU and 86610 RLU
CDH-3-TF controlled Luciferase expression ([3]; Fig S13c (with AIR-1-GEMS), Drug-3 31.4 nM): 73972 RLU and 79521 RLU and 71327 RLU
CDH-3-TF controlled Luciferase expression ([3]; Fig S13c (with AIR-1-GEMS), Drug-3 100 nM): 58208 RLU and 70422 RLU and 71065 RLU
CDH-3-TF controlled Luciferase expression ([3]; Fig S13c (with AIR-1-GEMS), Drug-3 314 nM): 42892 RLU and 48456 RLU and 50289 RLU
CDH-3-TF controlled Luciferase expression ([3]; Fig S13c (with AIR-1-GEMS), Drug-3 1000 nM): 30804 RLU and 29063 RLU and 25322 RLU
AIR-1-GEMS controlled SEAP expression ([3]; Drug-3 0.01 nM): 2.627 U/L and 3.059 U/L and 3.456 U/L
AIR-1-GEMS controlled SEAP expression ([3]; Drug-3 0.1 nM): 2.503 U/L and 2.294 U/L and 2.87 U/L
AIR-1-GEMS controlled SEAP expression ([3]; Drug-3 1 nM): 2.418 U/L and 1.987 U/L and 3.339 U/L
AIR-1-GEMS controlled SEAP expression ([3]; Drug-3 3.14 nM): 2.659 U/L and 2.285 U/L and 3.202 U/L
AIR-1-GEMS controlled SEAP expression ([3]; Drug-3 10 nM): 2.675 U/L and 2.964 U/L and 4.021 U/L
AIR-1-GEMS controlled SEAP expression ([3]; Drug-3 31.4 nM): 3.041 U/L and 3.191 U/L and 3.396 U/L
AIR-1-GEMS controlled SEAP expression ([3]; Drug-3 100 nM): 2.602 U/L and 2.779 U/L and 2.696 U/L
AIR-1-GEMS controlled SEAP expression ([3]; Drug-3 314 nM): 2.611 U/L and 3.076 U/L and 2.832 U/L
AIR-1-GEMS controlled SEAP expression ([3]; Drug-3 1000 nM): 3.25 U/L and 2.611 U/L and 2.639 U/L
CDH-3-TF controlled Luciferase expression ([3]; Fig S13e (with AIR-2-GEMS), Drug-3 0.01 nM): 41565 RLU and 51927 RLU and 50033 RLU
CDH-3-TF controlled Luciferase expression ([3]; Fig S13e (with AIR-2-GEMS), Drug-3 0.1 nM): 58083 RLU and 52382 RLU and 52587 RLU
CDH-3-TF controlled Luciferase expression ([3]; Fig S13e (with AIR-2-GEMS), Drug-3 1 nM): 58208 RLU and 58951 RLU and 60752 RLU
CDH-3-TF controlled Luciferase expression ([3]; Fig S13e (with AIR-2-GEMS), Drug-3 3.14 nM): 50716 RLU and 61071 RLU and 59090 RLU
CDH-3-TF controlled Luciferase expression ([3]; Fig S13e (with AIR-2-GEMS), Drug-3 10 nM): 56023 RLU and 57202 RLU and 60529 RLU
CDH-3-TF controlled Luciferase expression ([3]; Fig S13e (with AIR-2-GEMS), Drug-3 31.4 nM): 53333 RLU and 47578 RLU and 50640 RLU
CDH-3-TF controlled Luciferase expression ([3]; Fig S13e (with AIR-2-GEMS), Drug-3 100 nM): 44259 RLU and 48370 RLU and 51647 RLU
CDH-3-TF controlled Luciferase expression ([3]; Fig S13e (with AIR-2-GEMS), Drug-3 314 nM): 32705 RLU and 39602 RLU and 35080 RLU
CDH-3-TF controlled Luciferase expression ([3]; Fig S13e (with AIR-2-GEMS), Drug-3 1000 nM): 15038 RLU and 22579 RLU and 17745 RLU
AIR-2-GEMS controlled SEAP expression ([3]; Drug-3 0.01 nM): 23.8276 U/L and 27.0293 U/L and 24.7478 U/L
AIR-2-GEMS controlled SEAP expression ([3]; Drug-3 0.1 nM): 31.2293 U/L and 29.7436 U/L and 28.9473 U/L
AIR-2-GEMS controlled SEAP expression ([3]; Drug-3 1 nM): 33.4988 U/L and 33.4382 U/L and 38.599 U/L
AIR-2-GEMS controlled SEAP expression ([3]; Drug-3 3.14 nM): 29.7735 U/L and 33.7772 U/L and 32.4262 U/L
AIR-2-GEMS controlled SEAP expression ([3]; Drug-3 10 nM): 34.6343 U/L and 33.3124 U/L and 32.8022 U/L
AIR-2-GEMS controlled SEAP expression ([3]; Drug-3 31.4 nM): 36.5713 U/L and 29.6375 U/L and 31.1491 U/L
AIR-2-GEMS controlled SEAP expression ([3]; Drug-3 100 nM): 34.5656 U/L and 34.2561 U/L and 36.2322 U/L
AIR-2-GEMS controlled SEAP expression ([3]; Drug-3 314 nM): 30.9331 U/L and 30.4872 U/L and 34.4499 U/L
AIR-2-GEMS controlled SEAP expression ([3]; Drug-3 1000 nM): 13.1028 U/L and 12.5357 U/L and 11.75 U/L
IC50 ([3]; Homo sapiens, HEK-293T, Fig5c Luciferase turn OFF via CDH-3-TF, four-parameter fit, read-out: IC50 (best-fit value)): 2.39 nM
